According to patent US20250129430A1, “HIGH ATP-AFFINITY PROTEIN AS THERAPEUTIC TARGET FOR INTRACTABLE CANCER MOLECULAR SUBTYPES AND INHIBITOR THEREOF” (VeraVerse Co., Ltd., priority 2021, published 2025):
Counter-ions that a name gives are not always drawn.

Assays:
Experiment in all cases: Cell viability drug screen, 12-point dose-response AUC
Format in all cases: cell-based, human
[1] = system: FU97; design: Average Area Under the Viability Curve (AUC), AUC norm value: scale not given here; settings: FU97 cells, 72 hours
Method in brief: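 Trapezoidal AUC of a 12-point, DMSO-normalized dose-response curve. Luminescent viability was measured after 72 h of exposure at 37° C to half-log serial dilutions (0.5% DMSO control), dosed 24 h after plating FU97 cells at 5×10^3 per well.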

[2] = system: SK4; settings: 72 hours; for Average Area Under the Viability Curve (AUC), AUC norm value: SK4 cells (SEM subtype)
Method in brief: (§1)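 Dose-response AUC reflects 72 h drug exposure of gastric cancer cells in a 12-point, half-log format, with viability read by luminescence and normalized to DMSO (0.5%).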

[3] = system: SNU719; settings: SNU719 cells, 72 hours
Method in brief: (§2)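 Viability: luminescence (Glo kit, 15 min RT), normalized to 0.5% DMSO vehicle. Dosing: half-log, 12 concentrations, 72 h. Cells: 5×10^3/well, treated 24 h after plating. Value: trapezoidal AUC, mean of repeats.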

[4] = system: MKN45; settings: 72 hours; for Average Area Under the Viability Curve (AUC), AUC norm value: MKN45 cells (non-SEM subtype)
Method in brief: as §2

[5] = system: MKN28; settings: MKN28 cells, 72 hours
Method in brief: as §1

[6] = system: NCC59; settings: NCC59 cells, 72 hours
Method in brief: as §1

[7] = system: SNU1; settings: SNU1 cells, 72 hours
Method in brief: as §1

[8] = system: NCC19; settings: NCC19 cells, 72 hours
Method in brief: as §1

[9] = system: SNU601; settings: SNU601 cells, 72 hours
Method in brief: as §1

[10] = system: SNU16; settings: SNU16 cells, 72 hours
Method in brief: as §1

[11] = system: Hs746T; settings: 72 hours; for Average Area Under the Viability Curve (AUC), AUC norm value: Hs746T cells (SEM subtype)
Method in brief: as §1

[12] = system: YCC2; settings: YCC2 cells, 72 hours
Method in brief: as §1

[13] = system: OCUM1; settings: OCUM1 cells, 72 hours
Method in brief: as §1

[14] = system: AGS; settings: 72 hours; for Average Area Under the Viability Curve (AUC), AUC norm value: AGS cells (non-SEM subtype)
Method in brief: as §2

[15] = system: SNU1750; settings: 72 hours; for Average Area Under the Viability Curve (AUC), AUC norm value: SNU1750 cells (SEM subtype)
Method in brief: as §1

[16] = system: SNU216; settings: 72 hours; for Average Area Under the Viability Curve (AUC), AUC norm value: SNU216 cells (non-SEM subtype)
Method in brief: as §2

[17] = system: YCC11; settings: 72 hours; for Average Area Under the Viability Curve (AUC), AUC norm value: YCC11 cells (SEM subtype)
Method in brief: as §1

[18] = system: SNU668; settings: 72 hours; for Average Area Under the Viability Curve (AUC), AUC norm value: SNU668 cells (SEM subtype)
Method in brief: as §1

[19] = system: NCC24; settings: NCC24 cells, 72 hours
Method in brief: as §1

[20] = system: NCI_N87; settings: NCI_N87 cells, 72 hours
Method in brief: as §1

[21] = system: SNU638; settings: SNU638 cells, 72 hours
Method in brief: as §1

[22] = system: SNU1967; settings: SNU1967 cells, 72 hours
Method in brief: as §1

[23] = system: NCC20; settings: NCC20 cells, 72 hours
Method in brief: as §1

[24] = system: MKN1; settings: MKN1 cells, 72 hours
Method in brief: as §1

[25] = system: KATO3; settings: KATO3 cells, 72 hours
Method in brief: as §1

[26] = system: YCC3; settings: YCC3 cells, 72 hours
Method in brief: as §1

[27] = system: SNU620; settings: SNU620 cells, 72 hours
Method in brief: as §1

[28] = system: SNU484; settings: 72 hours; for Average Area Under the Viability Curve (AUC), AUC norm value: SNU484 cells (SEM subtype)
Method in brief: as §1

[29] = system: MKN74; settings: MKN74 cells, 72 hours
Method in brief: as §2

Question: With `CC(C)C[C@H](NC(=O)CNC(=O)c1cc(Cl)ccc1Cl)B1OC(=O)C(CC(=O)O)(CC(=O)O)O1` [MLN9708] as the molecule, how does the “Average Area Under the Viability Curve (AUC), AUC norm value” (“Average Area Under the Viability Curve” for short) [1] read?
Answer: Its value is −1.568.

Question: And the “Average Area Under the Viability Curve” value [2]?
Answer: The value was 0.4078.

Question: What about the “Average Area Under the Viability Curve” value [3] of the same molecule?
Answer: Its value is 1.304.

Question: And the “Average Area Under the Viability Curve” value [4]?
Answer: Its value is 0.2581.

Question: And the “Average Area Under the Viability Curve” value [5]?
Answer: The value was 0.1368.

Question: What about the “Average Area Under the Viability Curve” value [6] of the same molecule?
Answer: The value was −0.3472.

Question: And the “Average Area Under the Viability Curve” value [7]?
Answer: The value was 0.02493.

Question: And the “Average Area Under the Viability Curve” value [8]?
Answer: The value was −0.7913.

Question: And the “Average Area Under the Viability Curve” value [9]?
Answer: The value was 0.

Question: What about the “Average Area Under the Viability Curve” value [10] of the same molecule?
Answer: The value was −2.259.

Question: What about the “Average Area Under the Viability Curve” value [11] of the same molecule?
Answer: Its value is −1.547.

Question: What about the “Average Area Under the Viability Curve” value [12] of the same molecule?
Answer: The value was 0.3377.

Question: And the “Average Area Under the Viability Curve” value [13]?
Answer: The value was 2.097.

Question: And the “Average Area Under the Viability Curve” value [14]?
Answer: Its value is −0.6988.

Question: What about the “Average Area Under the Viability Curve” value [15] of the same molecule?
Answer: The value was −2.161.

Question: What about the “Average Area Under the Viability Curve” value [16] of the same molecule?
Answer: The value was 0.1416.

Question: And the “Average Area Under the Viability Curve” value [17]?
Answer: The value was −1.824.

Question: And the “Average Area Under the Viability Curve” value [18]?
Answer: The value was 1.232.

Question: What about the “Average Area Under the Viability Curve” value [19] of the same molecule?
Answer: Its value is −0.9085.

Question: And the “Average Area Under the Viability Curve” value [20]?
Answer: Its value is 1.9321.

Question: What about the “Average Area Under the Viability Curve” value [21] of the same molecule?
Answer: Its value is 0.0059.

Question: And the “Average Area Under the Viability Curve” value [22]?
Answer: The value was −1.556.

Question: And the “Average Area Under the Viability Curve” value [23]?
Answer: The value was −1.527.

Question: And the “Average Area Under the Viability Curve” value [24]?
Answer: Its value is 0.06734.

Question: What about the “Average Area Under the Viability Curve” value [25] of the same molecule?
Answer: The value was 0.559.

Question: And the “Average Area Under the Viability Curve” value [26]?
Answer: Its value is 2.717.

Question: What about the “Average Area Under the Viability Curve” value [27] of the same molecule?
Answer: Its value is −0.7036.

Question: What about the “Average Area Under the Viability Curve” value [28] of the same molecule?
Answer: Its value is −1.069.

Question: And the “Average Area Under the Viability Curve” value [29]?
Answer: The value was −0.4008.

Question: What does the source list for `O=C1c2c(O)ccc(O)c2C(=O)c2c(NCCNCCO)ccc(NCCNCCO)c21` [Mitoxantrone Hydrochloride]?
Answer: area under the viability curve (AUC), normalized ([1]; 12-point dose-response): 0.4542; area under the viability curve (AUC), normalized ([2]; SK4 cells, 12-point dose-response): −0.6127; area under the viability curve (AUC), normalized ([3]; 12-point dose-response): 3.647; area under the viability curve (AUC), normalized ([4]; MKN45 cells, 12-point dose-response): 2.014; area under the viability curve (AUC), normalized ([5]; 12-point dose-response): 1.616; area under the viability curve (AUC), normalized ([6]; 12-point dose-response): 1.001; area under the viability curve (AUC), normalized ([7]; 12-point dose-response): 0; area under the viability curve (AUC), normalized ([8]; 12-point dose-response): 2.884; area under the viability curve (AUC), normalized ([9]; 12-point dose-response): −0.5251; area under the viability curve (AUC), normalized ([10]; 12-point dose-response): 1.6; area under the viability curve (AUC), normalized ([11]; Hs746T cells, 12-point dose-response): 0.5925; area under the viability curve (AUC), normalized ([12]; 12-point dose-response): 0.5126; area under the viability curve (AUC), normalized ([13]; 12-point dose-response): 0.8078; area under the viability curve (AUC), normalized ([14]; AGS cells, 12-point dose-response): −1.671; area under the viability curve (AUC), normalized ([15]; SNU1750 cells, 12-point dose-response): −0.3587; area under the viability curve (AUC), normalized ([16]; SNU216 cells, 12-point dose-response): 1.1656; area under the viability curve (AUC), normalized ([17]; YCC11 cells, 12-point dose-response): −1.252; area under the viability curve (AUC), normalized ([18]; SNU668 cells, 12-point dose-response): −0.6581; area under the viability curve (AUC), normalized ([19]; 12-point dose-response): −1.038; area under the viability curve (AUC), normalized ([20]; 12-point dose-response): 2.6755; area under the viability curve (AUC), normalized ([21]; 12-point dose-response): −1.06; area under the viability curve (AUC), normalized ([22]; 12-point dose-response): −1.342; area under the viability curve (AUC), normalized ([23]; 12-point dose-response): −0.7422; area under the viability curve (AUC), normalized ([24]; 12-point dose-response): −1.197; area under the viability curve (AUC), normalized ([25]; 12-point dose-response): 4.807; area under the viability curve (AUC), normalized ([26]; 12-point dose-response): 2.27; area under the viability curve (AUC), normalized ([27]; 12-point dose-response): −0.6012; area under the viability curve (AUC), normalized ([28]; SNU484 cells, 12-point dose-response): −1.158; area under the viability curve (AUC), normalized ([29]; 12-point dose-response): −0.2914

Question: For `CCOc1cc2ncc(C#N)c(Nc3ccc(OCc4ccccn4)c(Cl)c3)c2cc1NC(=O)/C=C/CN(C)C` [Neratinib (HKI-272), Neratinib], which “Average Area Under the Viability Curve” value [1] is on record?
Answer: Its value is −0.2016.

Question: What about the “Average Area Under the Viability Curve” value [2] of the same molecule?
Answer: The value was −1.282.

Question: And the “Average Area Under the Viability Curve” value [3]?
Answer: The value was 1.894.

Question: And the “Average Area Under the Viability Curve” value [4]?
Answer: The value was 3.029.

Question: What about the “Average Area Under the Viability Curve” value [5] of the same molecule?
Answer: Its value is 0.1864.

Question: And the “Average Area Under the Viability Curve” value [6]?
Answer: The value was 1.9785.

Question: What about the “Average Area Under the Viability Curve” value [7] of the same molecule?
Answer: Its value is 1.038.

Question: What about the “Average Area Under the Viability Curve” value [8] of the same molecule?
Answer: The value was 2.052.

Question: And the “Average Area Under the Viability Curve” value [9]?
Answer: Its value is 0.802.

Question: What about the “Average Area Under the Viability Curve” value [10] of the same molecule?
Answer: The value was −1.491.

Question: What about the “Average Area Under the Viability Curve” value [11] of the same molecule?
Answer: Its value is −0.2204.

Question: And the “Average Area Under the Viability Curve” value [12]?
Answer: The value was −0.1749.

Question: And the “Average Area Under the Viability Curve” value [13]?
Answer: The value was 1.056.

Question: What about the “Average Area Under the Viability Curve” value [14] of the same molecule?
Answer: Its value is −0.9315.

Question: And the “Average Area Under the Viability Curve” value [15]?
Answer: Its value is −0.4123.

Question: And the “Average Area Under the Viability Curve” value [16]?
Answer: Its value is −2.1011.

Question: What about the “Average Area Under the Viability Curve” value [17] of the same molecule?
Answer: Its value is −1.333.

Question: What about the “Average Area Under the Viability Curve” value [18] of the same molecule?
Answer: The value was 0.8456.

Question: What about the “Average Area Under the Viability Curve” value [19] of the same molecule?
Answer: The value was 1.205.

Question: What about the “Average Area Under the Viability Curve” value [20] of the same molecule?
Answer: The value was −5.051.

Question: What about the “Average Area Under the Viability Curve” value [21] of the same molecule?
Answer: Its value is 0.

Question: What about the “Average Area Under the Viability Curve” value [22] of the same molecule?
Answer: The value was 0.8381.

Question: And the “Average Area Under the Viability Curve” value [23]?
Answer: The value was −1.6785.

Question: What about the “Average Area Under the Viability Curve” value [24] of the same molecule?
Answer: The value was −0.4985.

Question: And the “Average Area Under the Viability Curve” value [25]?
Answer: The value was 1.505.

Question: What about the “Average Area Under the Viability Curve” value [26] of the same molecule?
Answer: The value was 0.3013.

Question: What about the “Average Area Under the Viability Curve” value [27] of the same molecule?
Answer: Its value is 1.117.

Question: And the “Average Area Under the Viability Curve” value [28]?
Answer: The value was −1.2895.

Question: What about the “Average Area Under the Viability Curve” value [29] of the same molecule?
Answer: Its value is −1.144.
